According to publication PMC9785202, “Changes in Disposition of Ezetimibe and Its Active Metabolites Induced by Impaired Hepatic Function: The Influence of Enzyme and Transporter Activities” (Pharmaceutics, 2022):

Target: T1, OATP2B1 (Homo sapiens, UniProt O94956)
T1 construct: host or cells: HEK293
T1 sequence (O94956 1-709): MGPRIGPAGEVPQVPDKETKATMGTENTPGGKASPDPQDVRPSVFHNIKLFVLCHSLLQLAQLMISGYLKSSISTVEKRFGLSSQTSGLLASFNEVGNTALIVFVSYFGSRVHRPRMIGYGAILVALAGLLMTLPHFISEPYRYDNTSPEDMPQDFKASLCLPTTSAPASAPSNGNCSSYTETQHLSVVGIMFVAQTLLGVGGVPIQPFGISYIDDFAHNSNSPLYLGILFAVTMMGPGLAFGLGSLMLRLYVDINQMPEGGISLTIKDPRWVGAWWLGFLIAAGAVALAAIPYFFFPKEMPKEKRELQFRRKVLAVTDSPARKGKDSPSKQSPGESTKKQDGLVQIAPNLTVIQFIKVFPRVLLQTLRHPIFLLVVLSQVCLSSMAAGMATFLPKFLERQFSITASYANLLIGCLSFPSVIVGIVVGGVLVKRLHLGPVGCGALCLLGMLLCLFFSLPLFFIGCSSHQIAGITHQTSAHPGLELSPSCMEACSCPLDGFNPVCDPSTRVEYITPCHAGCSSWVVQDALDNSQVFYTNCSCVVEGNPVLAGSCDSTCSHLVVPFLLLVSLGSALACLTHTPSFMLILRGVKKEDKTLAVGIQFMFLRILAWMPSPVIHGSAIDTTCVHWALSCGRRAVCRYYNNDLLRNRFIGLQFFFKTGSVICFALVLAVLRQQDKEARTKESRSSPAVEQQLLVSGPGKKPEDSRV
Test: Uptake of EZE-Ph into OATP2B1-transfected HEK293 cells
Type: in vitro ADME
Procedure: The kinetic parameters and the half inhibitory concentration (IC50) were calculated using GraphPad Prism. […] The intrinsic clearance (CLint) was calculated as CLint = Vmax/Km.

O=C(O)[C@H]1O[C@@H](Oc2ccc([C@@H]3[C@@H](CC[C@H](O)c4ccc(F)cc4)C(=O)N3c3ccc(F)cc3)cc2)[C@H](O)[C@@H](O)[C@@H]1O [EZE-Ph, ezetimibe phenoxy β-D-glucuronide]
uptake in transporter-transfected cells relative to mock-transfected cells (10 μM EZE-Ph, OATP2B1 HEK293): 3.7 times
CLint (OATP2B1 HEK293, CLint = Vmax/Km): 0.56 μL/min/mg Protein
Kinetic Model (OATP2B1 HEK293, uptake time 5 min): Michaelis–Menten
